Experimental data: US9512065B2, “Polymorphs of N-[(R)-1-[(S)-1-(4-aminomethyl-benzylcarbamoyl)-2-phenyl-ethylcarbamoyl]-2-(4-ethoxy-phenyl)-ethyl]-benzamide hydrochloride” (Kalvista Pharmaceuticals Limited, priority 2012, dated 2016)
Where a name gives a salt, the structure may show the parent alone.

How the values were obtained:
Human plasma kallikrein = Human plasma kallikrein (Homo sapiens (Human), UniProt P03952); test: Determination of the Ki for plasma kallikrein; assay type: biochemical; conditions: 37° C., fluorogenic substrate H-DPro-Phe-Arg-AFC; read-out: Ki (human Pkal)
Experimental: Determination of the Ki for Plasma Kallikrein
Plasma kallikrein inhibitory activity in vitro was determined using standard published methods (see e.g. Johansen et al., Int. J. Tiss. Reac. 1986, 8, 185; Shori et al., Biochem. Pharmacol., 1992, 43, 1209; Stürzebecher et al., Biol. Chem. Hoppe-Seyler, 1992, 373, 1025). Human plasma kallikrein (Protogen) was incubated at 37° C. with the fluorogenic substrate H-DPro-Phe-Arg-AFC and various concentrations of the test compound. Residual enzyme activity (initial rate of reaction) was determined by measuring the change in […] at 410 nm and the Ki value for the test compound was determined.

Human KLK1 = Human KLK1 (Homo sapiens (Human), UniProt P06870); test: Determination of the IC50 for KLK1; assay type: biochemical; conditions: 37° C., fluorogenic substrate H-DVal-Leu-Arg-AFC
Experimental: Determination of the IC50 for KLK1
Human KLK1 (Callbiochem) was incubated at 37° C. with the fluorogenic substrate H-DVal-Leu-Arg-AFC and various concentrations of the test compound. Residual enzyme activity (initial rate of reaction) was determined by measuring the change in optical absorbance at 410 nm and the IC50 value for the test compound was determined.

[1] = Gravimetric vapour sorption (GVS); assay type: physicochemical
Experimental: Gravimetric Vapour Sorption
Sorption isotherms were obtained using a Hiden Isochema moisture sorption analyser (model IGAsorp), controlled by IGAsorp Systems Software V6.50.48. The sample was maintained at a constant temperature (25° C.) by the instrument controls. The humidity was controlled by mixing streams of dry and wet nitrogen, with a total flow of 250 ml·min-1. The instrument was verified for relative humidity content by measuring three calibrated Rotronic salt solutions (10-50-88%). The weight change of the sample was monitored as a function of humidity by a microbalance (accuracy +/−0.005 mg). A defined amount of sample was placed in a tared mesh stainless steel basket under ambient conditions. A full experimental cycle consisted of three scans (sorption, desorption and sorption) at a constant temperature (25° C.) and 10% RH intervals over a 0-90% range (60 minutes for each humidity level).

[2] = Storage stability at 40° C. and 75% relative humidity for 6 months; assay type: physicochemical
Excerpt: Further evidence of the suitability of the crystalline forms for pharmaceutical development is provided by the following stability data.

thrombin = thrombin (Homo sapiens (Human), UniProt P00734); test: Determination of enzyme selectivity: thrombin; assay type: biochemical; conditions: substrate at Km concentration
Excerpt: (§1) Determination of Enzyme Selectivity

Factor Xa = Factor Xa (Homo sapiens (Human), UniProt P00742); test: Determination of enzyme selectivity: Factor Xa; assay type: biochemical; conditions: substrate at Km concentration
Excerpt: as §1

Factor XIIa = Factor XIIa (Homo sapiens (Human), UniProt P00748); test: Determination of enzyme selectivity: Factor XIIa; assay type: biochemical; conditions: substrate at Km concentration
Excerpt: as §1

[3] = test system: CA-I stimulated RVP in Sprague Dawley rats; test: Carbonic anhydrase I induced retinal vascular permeability model; assay type: in vivo; conditions: rat
Experimental: Carbonic Anhydrase I Induced Retinal Vascular Permeability Model
After 30 mins, a second intravitreal injection (5 μL) of PBS or CA-I (200 ng/eye) was given. After 15 minutes, 10% sodium fluorescein was infused and retinal vascular permeability (RVP) was measured by vitreous fluorophotometry 75 minutes following the initial IVT injections. […] Intravitreal injection of N—[(R)-1-[(S)-1-(4-amino methyl-benzylcarbamoyl)-2-phenyl-ethylcarbamoyl]-2-(4-ethoxy-phenyl)-ethyl]-benzamide hydrochloride reduced RVP (stimulated by CA-I injection) by 53±21%.

[4] = Ocular and systemic pharmacokinetics following a single IVT dose; assay type: in vivo, rabbit; conditions: Dutch-belted rabbits
Experimental: A pharmacokinetic study of N—[(R)-1-[(S)-1-(4-aminomethyl-benzylcarbamoyl)-2-phenyl-ethylcarbamoyl]-2-(4-ethoxy-phenyl)-ethyl]-benzamide hydrochloride was performed to assess the ocular and systemic pharmacokinetics following a single IVT dose in pigmented (Dutch-belted) rabbits. […] Serial blood samples were collected in surviving rabbits.

diabetic rats = conditions: cited from earlier work

Chain of Factor Xa (P00742 235-488): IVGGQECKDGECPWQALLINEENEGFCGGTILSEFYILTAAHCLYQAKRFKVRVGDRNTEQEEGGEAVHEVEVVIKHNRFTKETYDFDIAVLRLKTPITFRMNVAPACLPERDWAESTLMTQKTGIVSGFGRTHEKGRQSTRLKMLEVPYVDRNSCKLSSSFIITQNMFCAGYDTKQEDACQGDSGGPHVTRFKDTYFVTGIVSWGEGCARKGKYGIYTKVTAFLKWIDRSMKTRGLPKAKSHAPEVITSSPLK
Chain of Factor Xa (P00742 41-179 partner): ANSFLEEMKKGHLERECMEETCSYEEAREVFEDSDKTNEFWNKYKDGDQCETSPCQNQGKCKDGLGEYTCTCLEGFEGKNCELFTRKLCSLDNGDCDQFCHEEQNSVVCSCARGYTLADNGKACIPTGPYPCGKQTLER
Chain of Human plasma kallikrein (P03952 391-638): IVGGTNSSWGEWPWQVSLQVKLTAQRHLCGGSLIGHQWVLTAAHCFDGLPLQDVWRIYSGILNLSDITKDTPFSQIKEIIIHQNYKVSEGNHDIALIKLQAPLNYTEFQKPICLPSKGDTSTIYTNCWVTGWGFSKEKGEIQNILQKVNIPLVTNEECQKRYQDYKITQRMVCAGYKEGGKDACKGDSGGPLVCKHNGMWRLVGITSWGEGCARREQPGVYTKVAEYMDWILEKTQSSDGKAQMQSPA
Chain of Human plasma kallikrein (P03952 20-390 partner): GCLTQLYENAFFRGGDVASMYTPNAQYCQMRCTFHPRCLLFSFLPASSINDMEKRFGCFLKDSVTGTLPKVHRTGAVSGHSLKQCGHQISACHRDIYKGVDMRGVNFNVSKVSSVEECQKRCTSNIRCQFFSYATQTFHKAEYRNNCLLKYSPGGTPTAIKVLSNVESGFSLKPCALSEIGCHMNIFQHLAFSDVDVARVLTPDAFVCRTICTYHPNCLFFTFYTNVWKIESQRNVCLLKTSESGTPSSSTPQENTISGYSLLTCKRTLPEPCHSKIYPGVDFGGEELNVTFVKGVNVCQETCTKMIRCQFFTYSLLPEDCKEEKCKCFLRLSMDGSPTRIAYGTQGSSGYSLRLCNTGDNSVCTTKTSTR
Chain of Factor XIIa (P00748 373-615): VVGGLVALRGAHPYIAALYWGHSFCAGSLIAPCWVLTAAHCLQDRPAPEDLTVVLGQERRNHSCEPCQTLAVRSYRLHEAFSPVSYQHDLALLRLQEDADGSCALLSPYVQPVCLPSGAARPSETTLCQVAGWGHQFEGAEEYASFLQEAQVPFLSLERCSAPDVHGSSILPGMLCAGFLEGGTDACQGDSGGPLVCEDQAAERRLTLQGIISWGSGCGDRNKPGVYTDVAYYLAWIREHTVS
Chain of Human KLK1 (P06870 25-262): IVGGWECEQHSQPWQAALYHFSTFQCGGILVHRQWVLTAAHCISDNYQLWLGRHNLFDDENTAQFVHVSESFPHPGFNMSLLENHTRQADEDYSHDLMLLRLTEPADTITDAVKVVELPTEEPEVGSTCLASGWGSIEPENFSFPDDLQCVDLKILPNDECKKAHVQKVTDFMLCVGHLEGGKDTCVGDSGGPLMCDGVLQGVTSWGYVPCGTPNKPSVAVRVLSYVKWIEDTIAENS

Compound: CCOc1ccc(C[C@@H](NC(=O)c2ccccc2)C(=O)N[C@@H](Cc2ccccc2)C(=O)NCc2ccc(CN)cc2)cc1 [Form 1, N—[(R)-1-[(S)-1-(4-aminomethyl-benzylcarbamoyl)-2-phenyl-ethylcarbamoyl]-2-(4-ethoxy-phenyl)-ethyl]-benzamide hydrochloride]
- Ki (Human plasma kallikrein): 0.01 µM
- IC50 (Human KLK1): > 10 µM
- hydration (GVS) ([1]; 25° C., sorption, desorption and sorption, 0-90% RH): reversible
- hygroscopicity ([1]; GVS data): absence of significant hygroscopicity
- increase in water content (GVS) ([1]; normal conditions, 20% to 80% relative humidity): only a relatively gradual increase
- chemical degradation on storage ([2]; 6 months): no significant chemical degradation
- purity (HPLC) on storage ([2]; 6 months): 99.8 % area
- change to the XRPD diffractogram on storage ([2]; 6 months, double polyethylene bags in polypropylene container): no change
- water content (Karl Fischer) on storage ([2]; after one month and thereafter up to 6 months): 2.5%-2.8%

Compound: CCOc1ccc(C[C@@H](NC(=O)c2ccccc2)C(=O)N[C@@H](Cc2ccccc2)C(=O)NCc2ccc(CN)cc2)cc1 [N—[(R)-1-[(S)-1-(4-aminomethyl-benzylcarbamoyl)-2-phenyl-ethylcarbamoyl]-2-(4-ethoxy-phenyl)-ethyl]-benzamide hydrochloride]
- IC50 (thrombin): > 40 µM
- IC50 (Factor Xa): > 10 µM
- IC50 (Factor XIIa): > 10 µM
- reduction of RVP stimulated by CA-I injection ([3]; intravitreal injection 5 μL of 1 μM, CA-I 200 ng/eye after 30 mins): 53±21%
- basal RVP ([3]; intravitreal injection of 1 μM alone (no CA-I), no effect compared to PBS alone, vitreous fluorophotometry at 75 minutes): 3.29±0.21
- decline in ocular tissue concentrations ([4]; single IVT 210 ng per eye, vitreous, retina/choroid, aqueous humour, over 7 days): minimal
- plasma concentrations following IVT administration ([4]; single bilateral IVT 210 ng per eye, all time points): below 1 ng/mL

Compound: N=C(N)c1ccc(CNC(=O)c2cnn(Cc3ccccc3)c2)cc1 [ASP-440]
- retinal vascular permeability and retinal blood flow abnormalities (diabetic rats): ameliorated
